Results published in patent publication US20250287942A1, “FORMULATIONS FOR REPELLING BEES AND OTHER INSECTS” (priority 2022, published 2025).

What was measured:
[1] = TGA volatility at 40 degrees Celsius (Example 3); format: physicochemical; conditions: isothermal at 40° C. for 900 minutes, slope from 800-900 minutes
Procedure: Volatility may be measured by Thermogravimetric Analysis (TGA) method. Volatility of bee repellent compounds is measured by TGA at 40° C. (i.e., as bee repellent wt % loss per min at 40° C.). In some variations, a “high volatility” bee repellent compound has a volatility greater than 1E-04 (wt % loss/min at 40° C.). In some variations, a “low volatility” bee repellent compound has a bee repellent volatility less than 1E-04 (wt % loss/min at 40° C.).
A TA Instruments TGA5500 was used to determine the volatility of bee repellent chemicals at 40 degrees Celsius. The sample purge was set for 25 mL/min and the balance purge is set for 10 mL/min. A 30 mg sample of the chemical was placed in the sample pan, the temperature was ramped up to 40° C. at a rate of 10° C./min and was held isothermal at 40° C. for 900 minutes. The slope was then determined from 800-900 minutes to determine its volatility. The volatility of bee repellent compounds were determined according to Table 6 below.

[2] = test system: honey bee workers (Apis mellifera); assay: 2-choice plate (petri-dish arena) assay, honey vs honey plus repellent candidate; format: in vivo; conditions: 2-choice plate assay; for First choice Preference Index (repellent side): first visit and drink (repellent - solvent)/(repellent + solvent); for Honey consumption Preference Index (repellent side): plates where honeybees drank more honey from (repellent - solvent)/(repellent + solvent)
Procedure: To date, we used capped brood frames from 10 colonies kept in three apiaries on campus at UC Riverside. After moving the brood (pupated honey bee larvae) into an observation frame inside an incubator overnight, we collected freshly emerged honey bee workers into groups of 80 per cage, providing them with a small piece of wax foundation, 50% sugar water and tap water ad libitum. Between day 3 and day 10 post emergence, we provided them with a protein dough. We removed dead workers and exchanged food every second day. After the bees reached foraging age (13-19 days post emergence), we grouped them into cages of 40 workers, each. To ensure that they were hungry enough to participate in our trials, we starved the workers before each experiment, depending on their age. Between 13 and 16 days of age, we wet-starved them for 17 hours by removing the sugar water tube from their cage, replacing it with an empty vial. Bees aged between 17 and 19 days were starved for six hours, only, to ensure their survival. On the day of the experiment, we removed dead bees and food vials from each cage, and placed the cage into a refrigerator, until the trial arena was ready, and the bees were cool enough to not move anymore.
To turn a 15 cm petri-dish into a 2-choice test arena, we taped a paper-grid on the outside of its bottom, establishing one side as honey (H) and the other as honey plus repellent candidate (HR, FIG. 3). Next, we pipetted 20 ul of pure acetone onto a 6 mm punch-out of filter paper, then let it evaporate in the fume hood for at least 30 min. We then taped the punch-out to the H-spot on the petri-dish. Repeating the process with 20 ul of the repellent candidate (5% in acetone), again letting the acetone evaporate for at least 30 Min, we stuck the now solely repellent-candidate-soaked punch-out onto the HR spot of the arena. To entice the bees to participate in our trial, we used a pipette and filled two 70 ul lids of PCR tubes full of pure, slightly warmed honey, until we observed a meniscus. We then taped one honey-filled lid onto the H, the other onto the HR filter paper, being careful not to disturb the meniscus.
We placed six prepared arenas onto a heating pillow turned onto level 1 (FIG. 2B), removed the cooled honey bee workers from the fridge and grouped between four and five bees into each plate, using insect tweezers. We filmed the bees for 60 Minutes, using an ipad (video at wide-angle, 0.5). To avoid glare, we staged the ipad on top of a plexi glass pane held by a cage constructed from pvc tubes, and covered with a double cotton sheet.
After each trial, we counted those plates, in which the honey wells had been touched as participating plates. We repeated the trials often enough to ensure participation in a minimum of five plates per repellent candidate. For each of the participating plates, we then screened each video to find the first bee that chose a honey well to drink from. The choice was recorded as either Honey (H) or Honey and repellent candidate (HR). We then calculated a Preference Index for each repellent candidate as follows: Number of repellent candidate choices minus number of honey choices) divided by sum of all choices).
The negative indexes indicate, that the honey bee workers did avoid the repellent candidates, but to varying degrees. The preference indexes show the first choices of honey bee workers (Apis mellifera) offered honey on filter paper with repellent-candidates versus honey only. Groups of 4-5 honeybee workers were placed in each 2-choice arena. Indexes are calculated per repellent candidate as (total number of repellent choices minus total number of solvent choices) divided by sum of all choices).
Preference Indexes for repellent candidates were determined in a manner similar to that described in Example 1. […]

[3] = TGA volatility method of Example 4; format: physicochemical; conditions: 40° C. isothermal for 15 hours, slope between 800-900 minutes
Procedure: Two BR3.3A (liquid) and BR 4.5 (solid) bee repellents were used in this example for comparison. BR 3.3A has a relatively higher volatility compared to BR 4.5. A TGA method was developed to characterize volatility of bee repellents. The volatility was measured by setting up a TGA method. In the TGA pan, 0.30 mg+0.02 mg of the bee repellent of interest is applied in an even layer on the bottom of the TGA pan immediately before starting the measurement. The TGA is programmed to have a balance purge flow of 40 mL/min and a sample purge flow of 60 mL/min. The TGA ramps from 25° C. to 40° C. at a rate of 5° C. per minute. Then the temperature is held isothermally at 40° C. for 15 hours. After the test has been completed, the slope is calculated for the % loss per minute between 800-900 minutes and the results are reported. The smaller the slope, the less the volatility. The volatility of BR3.3A measured by the above method has a slope of −4.61E-03%/min, and the slope for BR4.5 is −1.81E-04%/min.

[4] = test system: honey bees; assay: Field study on flowering buckwheat patches, honey bee counts; format: in vivo; conditions: emulsifiable concentrate sprayed at 4 kg/hectare; counts at 15 min, 30 min, 1 hour, 24 hours
Procedure: In this field study, 12 patches of buckwheat were planted, each measuring approximately 2 m×2 m in size in the agricultural operations field. When the flowering was estimated to be >50%, the experiments were performed. Each patch was divided into 2 approximately equal parts based on flowers by observation, one side for treatment spray and the other as control solvent (water) spray (FIG. 9A). The patches for different treatments were in a block design and the treatment side in a patch was randomly assigned as water or treatment (FIG. 9B). The test chemicals in emulsifiable concentrate form were dissolved in water in a tank to spray at the rate equivalent to 4 kg/hectare. After the spraying the numbers of honey bees present on each side of each patch was counted by 3 human observers at the following time points: 15 min, 30 min, 1 hour, 24 hours. The average number of bees at each time point were used to calculate the percentage decrease in numbers of bees on the treatment side relative to the water side and plotted (FIG. 9C).

CCCC(=O)CCc1ccccc1 [1-phenyl-3-hexanone]
TGA volatility @ 40° C. (weight loss %/min) [1]: 1.37E−02 weight loss %/min

CCCCCCCCC(C)=O [2-Decanone, reference compound]
TGA volatility @ 40° C. (weight loss %/min) [1]: 0.1623 weight loss %/min

CCNC(=O)c1cccc(Br)c1 [3-bromo-N-ethylbenzamide]
TGA volatility @ 40° C. (weight loss %/min) [1]: 1.40E−04 weight loss %/min

COCCC(=O)Oc1ccccc1 [BR 3.1, Phenyl 3-methoxy-propanoate]
% honey left on repellent side [2]: 99.17%
First choice Preference Index (repellent side) [2]: −0.8333
Honey consumption Preference Index (repellent side) [2]: −0.9166

CCOC(=O)CC1CCc2ccccc21 (stereo not shown) [BR 3.3A, ethyl 2-(2,3-dihydro-1H-inden-1-yl)acetate]
% honey left on repellent side [2]: 95.83%
First choice Preference Index (repellent side) [2]: −1
Honey consumption Preference Index (repellent side) [2]: −1
slope, % loss per minute (TGA volatility) [3]: −4.61E-03 %/min

CCCC(=O)CCc1ccccc1 [BR 3.4, 1-Phenyl-3-hexanone]
% honey left on repellent side [2]: 99.72%
First choice Preference Index (repellent side) [2]: −1
Honey consumption Preference Index (repellent side) [2]: −1

CCCCCC(=O)c1ccccc1 [BR 3.5, Hexanophenone]
% honey left on repellent side [2]: 100%
First choice Preference Index (repellent side) [2]: −1
Honey consumption Preference Index (repellent side) [2]: −1

CCOCCC(=O)N1CCc2ccccc21 [BR 3.9, 1-(2,3-Dihydro-1H-indol-1-yl)-3-ethoxy-1-propanone]
First choice Preference Index (repellent side) [2]: −0.6
Honey consumption Preference Index (repellent side) [2]: −0.8

CCOCCCNC(=O)c1ccccc1I [BR 3.30, N-(3-ethoxypropyl)(2-iodophenyl) carboxamide]
% honey left on repellent side [2]: 80.45%
First choice Preference Index (repellent side) [2]: −0.733
Honey consumption Preference Index (repellent side) [2]: −0.8

C/C(=C\C(=O)c1ccccc1)c1ccccc1 [BR 3.42, (2E)-1,3-Diphenyl-2-buten-1-on]
First choice Preference Index (repellent side) [2]: −0.772
Honey consumption Preference Index (repellent side) [2]: −0.727

CCNC(=O)c1cccc(Br)c1 [BR 3.47, 3-bromo-N-ethylbenzamide]
% honey left on repellent side [2]: 95.42%
First choice Preference Index (repellent side) [2]: −1
Honey consumption Preference Index (repellent side) [2]: −0.6666

CCOC(=O)c1ccccc1I [BR 3.81, Ethyl 2-iodobenzoate]
% honey left on repellent side [2]: 99.17%
First choice Preference Index (repellent side) [2]: −0.9
Honey consumption Preference Index (repellent side) [2]: −0.9
numbers of honey bees on treatment side relative to water side [4]: showed a decrease in numbers of honey bees

O=C(/C=C/c1cccnc1)c1ccncc1 [BR 4.4, 3-(3-Pyridinyl)-1-(4-pyridinyl)-2-propen-1-one]
First choice Preference Index (repellent side) [2]: −0.7142
Honey consumption Preference Index (repellent side) [2]: −0.7143

CC(C)OC(C(=O)c1ccccc1)c1ccccc1 (stereo not shown) [BR 4.5, 2-Isopropox y-1,2-diphenyl-ethanone]
First choice Preference Index (repellent side) [2]: −0.8947
Honey consumption Preference Index (repellent side) [2]: −0.8947
slope, % loss per minute (TGA volatility) [3]: −1.81E-04 %/min

CCN(CC)C(=O)c1cccc(C)c1 [DEET, N,N-diethyl-meta-toluamide, reference compound]
TGA volatility @ 40° C. (weight loss %/min) [1]: 2.29E−03 weight loss %/min

CCOC(=O)CNc1ccccc1C#N [Ethyl 2-(2-Cyanoanilino) acetate]
TGA volatility @ 40° C. (weight loss %/min) [1]: 4.04E−05 weight loss %/min

CCOC(=O)c1ccccc1I [Ethyl 2-iodobenzoate]
TGA volatility @ 40° C. (weight loss %/min) [1]: 6.66E−03 weight loss %/min

CCOC(=O)Cc1cccc(C)c1 [Ethyl m-Tolylacetate]
TGA volatility @ 40° C. (weight loss %/min) [1]: 2.73E−02 weight loss %/min

CCCCCC(=O)c1ccccc1 [Hexanophenone]
TGA volatility @ 40° C. (weight loss %/min) [1]: 1.11E−02 weight loss %/min

CCOCCCNC(=O)c1ccccc1I [N-(3-ethoxypropyl)-2-iodobenzamide]
TGA volatility @ 40° C. (weight loss %/min) [1]: 2.16E−05 weight loss %/min

COCCC(=O)Oc1ccccc1 [Phenyl 3-methoxypropanoate]
TGA volatility @ 40° C. (weight loss %/min) [1]: 1.66E−02 weight loss %/min

CCOC(=O)CC1CCc2ccccc21 (stereo not shown) [ethyl 2-(2,3-dihydro-1H-inden-1-yl) acetate]
TGA volatility @ 40° C. (weight loss %/min) [1]: 4.61E−03 weight loss %/min
